Our source for the TGI values is PubChem BioAssay (NCI).

Test systems include 786-0 renal; A549 NSCLC; BT-549 breast; HCC-2998 colon; HCT-116 colon; HCT-15 colon; HS 578T breast; M14 melanoma; MALME-3M melanoma; NCI-H23 lung; OVCAR-8 ovarian; RXF 393 renal; SF-295 CNS; SK-MEL-2 melanoma; SK-OV-3 ovarian; SNB-19 CNS; SNB-75 CNS; T-47D breast; UACC-62 melanoma; UO-31 renal.
Holding throughout (test): NCI tumour cell line growth inhibition, 48 h

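All cell lines were grown in 96-well plates and treated with compound for 48 hours. TGI: total growth inhibition.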

With `CCOC(=O)c1c(N)sc2c1CC(C)CC2` (centres undefined), the TGI in the test on 786-0 renal is 55.3 µM; in the test on A549 NSCLC, above 100 µM; in the test on BT-549 breast, above 100 µM; in the test on HCC-2998 colon, 45.6 µM; with HCT-116 colon, above 100 µM; with HCT-15 colon it was above 100 µM. In addition, the TGI in the test with HS 578T breast was above 100 µM; in the test with M14 melanoma it was above 100 µM; with MALME-3M melanoma, above 100 µM; in the test on NCI-H23 lung it was above 100 µM; in the test on OVCAR-8 ovarian it was above 100 µM; with RXF 393 renal it was 44.9 µM. The TGI in the test on SF-295 CNS was above 100 µM; in the test with SK-MEL-2 melanoma, above 100 µM; in the test with SK-OV-3 ovarian it was above 100 µM; in the test on SNB-19 CNS it was above 100 µM; with SNB-75 CNS it was 98.1 µM; in the test with T-47D breast it was above 100 µM. The TGI in the test on UACC-62 melanoma and in the test on UO-31 renal was above 100 µM each time.

On to `COC(=O)Nc1nc2ccc(NS(=O)(=O)c3cccs3)cc2[nH]1`, for which the TGI in the test with 786-0 renal is above 100 µM; in the test with A549 NSCLC it was above 100 µM; in the test with BT-549 breast, above 100 µM; with HCT-116 colon, 47.5 µM; with HCT-15 colon, above 100 µM; in the test with HS 578T breast it was 36.4 µM. The TGI in the test on M14 melanoma is 76 µM; in the test on MALME-3M melanoma, 54.7 µM; with NCI-H23 lung it was above 100 µM; in the test with OVCAR-8 ovarian, above 100 µM; with RXF 393 renal, 85.8 µM; in the test with SF-295 CNS it was 70.9 µM. In addition, the TGI in the test on SK-MEL-2 melanoma was above 100 µM; in the test on SK-OV-3 ovarian it was 90.6 µM; in the test on SNB-19 CNS, above 100 µM; with SNB-75 CNS it was 67.8 µM; in the test on T-47D breast, 85.3 µM; in the test on UACC-62 melanoma, above 100 µM. Besides, the TGI with UO-31 renal is above 100 µM.

With `Nn1c(CCCCCCCCc2nnc(-c3c(O)ccc4ccccc34)n2N)nnc1-c1c(O)ccc2ccccc12`, the TGI with 786-0 renal, in the test on A549 NSCLC, in the test on BT-549 breast, in the test with HCC-2998 colon, in the test on HCT-116 colon and in the test with HCT-15 colon was above 100 µM each time. In addition, the TGI with HS 578T breast, in the test with M14 melanoma, in the test with MALME-3M melanoma, with NCI-H23 lung, with OVCAR-8 ovarian and in the test on SF-295 CNS was above 100 µM throughout. Moreover, the TGI with SK-MEL-2 melanoma, with SK-OV-3 ovarian, with SNB-19 CNS, in the test with SNB-75 CNS, in the test on T-47D breast and in the test on UACC-62 melanoma was above 100 µM in each case. The TGI in the test with UO-31 renal is above 100 µM.

For `Nc1nc(Cl)cc(NCC2(CCO)CCC2)n1`, the TGI in the test with 786-0 renal, in the test with A549 NSCLC, in the test on BT-549 breast, with HCC-2998 colon, in the test with HCT-116 colon and in the test on HCT-15 colon was above 100 µM in each case. Moreover, the TGI in the test with HS 578T breast was above 100 µM; in the test with MALME-3M melanoma, above 100 µM; with NCI-H23 lung, above 100 µM; with OVCAR-8 ovarian, above 100 µM; with RXF 393 renal it was above 100 µM; in the test with SF-295 CNS, above 10 µM. Besides, the TGI with SK-MEL-2 melanoma is above 100 µM; in the test on SK-OV-3 ovarian, above 100 µM; in the test with SNB-19 CNS, above 100 µM; in the test with SNB-75 CNS it was above 10 µM; with T-47D breast it was above 100 µM; with UACC-62 melanoma it was above 10 µM. Moreover, the TGI with UO-31 renal is above 100 µM.

Consider `Cc1ncn(-c2ccccc2O)c1C`, for which the TGI in the test on 786-0 renal, with A549 NSCLC, with BT-549 breast, in the test on HCT-116 colon, with HCT-15 colon and with HS 578T breast was above 100 µM throughout. The TGI with M14 melanoma, in the test on MALME-3M melanoma, in the test with NCI-H23 lung, in the test on OVCAR-8 ovarian, in the test on RXF 393 renal and in the test with SF-295 CNS was above 100 µM in each case. For the same compound, the TGI in the test with SK-MEL-2 melanoma, in the test on SK-OV-3 ovarian, with SNB-19 CNS, in the test on SNB-75 CNS, in the test with T-47D breast and in the test with UACC-62 melanoma was above 100 µM throughout. This compound also showed a TGI in the test with UO-31 renal above 100 µM.

On to `O=c1onc2n1-c1ccc(Cl)cc1C(=S)N1CSCC21` (centres undefined), for which the TGI with 786-0 renal was above 100 µM; in the test on A549 NSCLC it was above 100 µM; with BT-549 breast, 67.4 µM; in the test on HCC-2998 colon, 35.4 µM; with HCT-116 colon it was 95.7 µM; in the test with HCT-15 colon, 95.3 µM. Also, the TGI is 53.9 µM in the test with HS 578T breast; 28.8 µM in the test with M14 melanoma; above 100 µM in the test on MALME-3M melanoma; 39.8 µM in the test on OVCAR-8 ovarian; 89.2 µM with RXF 393 renal; 41.9 µM with SF-295 CNS. Further, the TGI in the test with SK-MEL-2 melanoma is 69.6 µM; with SK-OV-3 ovarian, 49.4 µM; in the test on SNB-19 CNS, 52.5 µM; with SNB-75 CNS, 91.9 µM; in the test with T-47D breast, above 100 µM; in the test with UACC-62 melanoma, above 100 µM. For the same compound, the TGI in the test on UO-31 renal is above 100 µM.

In the case of `CCOP(=O)(CC(=O)C1CC1)OCC`, the TGI in the test on 786-0 renal, with A549 NSCLC, in the test with BT-549 breast, in the test on HCC-2998 colon, with HCT-116 colon and in the test on HCT-15 colon was above 100 µM throughout. Besides, the TGI with HS 578T breast, in the test on M14 melanoma, in the test on MALME-3M melanoma, in the test on NCI-H23 lung, with OVCAR-8 ovarian and in the test on SF-295 CNS was above 100 µM in each case. Further, the TGI in the test with SK-MEL-2 melanoma, in the test with SK-OV-3 ovarian, in the test with SNB-19 CNS, in the test with SNB-75 CNS, in the test on T-47D breast and in the test with UACC-62 melanoma was above 100 µM throughout. For the same compound, in the test with UO-31 renal, the TGI is above 100 µM.
